Measurements taken from patent publication US4481191A, “Method for controlling blood pressure” (The Regents of the University of California, priority 1983, dated 1984).

Columns and labels:
rats = details: administered intravenously (i.v.); Wei et al., Life Sciences; cited from earlier work
[1] = system: visceral afferent receptors; test: Sensitivity to morphine sulfate-induced bradycardia after subcutaneous pretreatment (FIG. 1); format: in vivo, rat; details: rats; for effect of prior administration on sensitivity to morphine sulfate bradycardia (ED50 of morphine sulfate for greater than 10% fall in heart rate): subcutaneously 30 minutes before testing with morphine sulfate
Description: Turning to FIG. 1, the ordinate thereof represents the ED50 of morphine sulfate for producing a greater than 10% fall in heart rate in rats, and serves as an index of the sensitivity of the animal to the drug. Morphine sulfate functions as a "challenge" drug for producing bradycardia, and is a traditional standard for comparison. Lower ED50 values mean that the visceral afferent receptors are more sensitive. The abscissa of FIG. 1 represents doses of dynorphin(1-13) and Leu-enkephalin, respectively, in units of micromoles per kg body weight administered subcutaneously 30 minutes before testing with morphine sulfate.
The experiments for which the data is illustrated by FIGS. 1 and 2 were conducted on male Sprague-Dawley rats weighing 250-350 g. Animals were kept under a 12-hour light-dark cycle with food and water available ad libitum. Each rat was used only once. Procedures of infusion of chemicals into the brain and for measurement of heart rate were as reported by Wei, et al., Life Science, supra, and Wei, J. Pharmacol. Exp. Ther. 21b: 12-18 (1981).
The median effective dose of drugs (ED50) for producing bradycardia was determined in animals anesthetized with 2.5% urethane solution in saline, administered 1.25 g/kg i.p. Drugs, dissolved in distilled water, were injected intravenously into a cannulated femoral vein in a volume of 0.05 ml/100 gm body weight delivered over a period of less than 3 seconds. The pH of the solutions ranged from 5.8 to 6.8 units. The blood pressure was obtained from the left cannulated carotid artery. A Narcobiosystems type 7302 cardiotachometer couple was used to integrate heart rate from the individual oscillations in blood pressure due to the heart beat, and heart rate was recorded on a polygraph recorder. The baseline heart rate (HR1) was defined as the lowest rate observed in the two minutes before drug administration. The magnitude of the change in heart rate was calculated as [(HR2 -HR1)/HR1 ]×100%, with the second heart rate (HR2) measured as the lowest rate observed in the three minutes after drug injection. […]

guinea pig ileum = details: cited from earlier work
mouse vas deferens = details: cited from earlier work
[2] = synthetic product; cited from earlier work
mice = details: studies with mice; cited from earlier work

| Substance | median effective dose (ED50) for lowering of heart rate and blood pressure (rats) [µmol/kg] | effect of prior administration on sensitivity to morphine sulfate bradycardia (ED50 of morphine sulfate for greater than 10% fall in heart rate) [1] | other results |
| --- | --- | --- | --- |
| methionine-enkephalin | 1.3 |  |  |
| beta-endorphin: endogenous opioid peptide | 0.07 |  |  |
| Leu-enkephalin | 1.5 | enhances sensitivity |  |
| Dynorphin |  |  | agonist properties (guinea pig ileum): potent agonist properties; agonist properties (mouse vas deferens): potent agonist properties |
| dynorphin(1-13) |  | enhances sensitivity | potency in bioassays versus the naturally occurring peptide [2]: as potent in bioassays as the naturally occuring peptide; analgesia (mice): relatively weak in producing analgesia; activity in enhancing sensitivity relative to Leu-enkephalin ([1]; subcutaneously 30 minutes before morphine sulfate): about 5 times |
